# Data: patent publication US12583893B2, “Use of esculentin and its derivatives for use in the treatment of cystic fibrosis” (UNIVERSITÀ DEGLI STUDI DI ROMA LA SAPIENZA, priority 2019, dated 2026)
# “Also recorded” adds a separate entry of the source. Square brackets hold non-standard residues; d marks the D form. Ends that are not written are not given here. d(pS) = N[C@H](COP(=O)(O)O)C(=O)O
# Tests used:
# F508del CFTR [1] = biological target: T1, F508del CFTR (Homo sapiens, UniProt P13569, DEL508-508); assay: Ussing chamber short-circuit current on bronchial epithelia from homozygous F508del patient; assay type: cell-based; design: Ussing chamber experiments on bronchial epithelia from homozygous F508del patient; host or cells: primary human bronchial epithelial cells from a CF patient homozygous for F508del; conditions: epithelia incubated 24 h with 1 μM Vx-809, then amiloride, cpt-cAMP and potentiator
# T1 sequence (P13569 with tags, fused parts or gaps DEL508-508): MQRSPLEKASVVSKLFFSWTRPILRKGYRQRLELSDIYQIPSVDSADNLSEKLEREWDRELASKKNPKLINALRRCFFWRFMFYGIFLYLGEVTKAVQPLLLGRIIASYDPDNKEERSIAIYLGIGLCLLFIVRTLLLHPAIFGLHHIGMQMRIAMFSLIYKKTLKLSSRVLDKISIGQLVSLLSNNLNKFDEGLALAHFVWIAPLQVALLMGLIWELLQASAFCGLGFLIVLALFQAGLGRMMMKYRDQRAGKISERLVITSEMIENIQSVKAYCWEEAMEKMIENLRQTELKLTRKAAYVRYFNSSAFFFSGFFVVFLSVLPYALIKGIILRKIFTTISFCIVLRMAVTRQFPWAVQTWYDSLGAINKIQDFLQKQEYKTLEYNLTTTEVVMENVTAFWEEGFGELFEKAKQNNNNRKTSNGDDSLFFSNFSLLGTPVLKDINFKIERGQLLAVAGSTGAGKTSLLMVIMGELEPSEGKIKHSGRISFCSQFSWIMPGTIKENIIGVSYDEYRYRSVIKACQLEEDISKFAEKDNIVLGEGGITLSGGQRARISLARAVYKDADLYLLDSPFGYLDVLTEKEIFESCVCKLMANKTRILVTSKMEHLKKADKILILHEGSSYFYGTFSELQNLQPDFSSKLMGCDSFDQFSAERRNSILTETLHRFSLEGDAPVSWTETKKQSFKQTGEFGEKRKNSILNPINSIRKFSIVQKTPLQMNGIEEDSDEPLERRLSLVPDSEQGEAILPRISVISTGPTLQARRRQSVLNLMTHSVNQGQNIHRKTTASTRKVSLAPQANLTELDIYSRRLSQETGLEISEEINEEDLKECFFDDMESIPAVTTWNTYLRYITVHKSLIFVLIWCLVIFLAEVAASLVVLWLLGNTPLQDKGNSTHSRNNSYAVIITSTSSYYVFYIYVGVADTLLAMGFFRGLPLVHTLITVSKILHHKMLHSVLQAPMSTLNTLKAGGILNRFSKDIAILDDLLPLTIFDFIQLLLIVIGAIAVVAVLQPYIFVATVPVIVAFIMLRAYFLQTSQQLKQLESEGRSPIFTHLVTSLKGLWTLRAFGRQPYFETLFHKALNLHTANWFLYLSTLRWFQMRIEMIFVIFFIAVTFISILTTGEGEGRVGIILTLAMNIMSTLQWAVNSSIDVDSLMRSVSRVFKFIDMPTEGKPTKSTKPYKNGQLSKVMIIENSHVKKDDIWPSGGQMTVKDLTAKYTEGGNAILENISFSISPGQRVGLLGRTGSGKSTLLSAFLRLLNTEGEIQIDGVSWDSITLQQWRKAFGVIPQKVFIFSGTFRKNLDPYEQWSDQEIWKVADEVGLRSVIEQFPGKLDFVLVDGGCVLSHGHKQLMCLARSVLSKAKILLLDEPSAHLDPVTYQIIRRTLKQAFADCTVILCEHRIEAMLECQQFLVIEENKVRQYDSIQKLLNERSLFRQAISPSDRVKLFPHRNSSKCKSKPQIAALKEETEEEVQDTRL
# Protocol: Snapwell inserts (Corning 3801) carrying differentiated bronchial epithelia were mounted in a vertical diffusion chamber, resembling a Ussing chamber with internal fluid circulation. Both apical and basolateral chambers were filled with 5 ml of saline solution. The short-circuit current was recorded with a PowerLab 4/25 (ADInstruments) analog-to-digital converter connected to a computer. Epithelia were incubated for 24 h with 1 μM Vx-809 or 0.1% DMSO. Afterwards, 10 μM amiloride was added; subsequently, CFTR channels were activated by phosphorylation upon addition of 100 μM cpt-cAMP (permeable cAMP analog). Then, 1 μM of the potentiator Vx-770 as well as each Esc peptide was added on the epithelium apical side, as indicated. Finally, 10 μM Inh172, a specific inhibitor of CFTR was added to the epithelium apical side. Measurements were done after 5 min from the addition of each substance. In parallel, epithelia pre-incubated for 24 h with each peptide and then treated with amiloride, cpt-cAMP and Vx-770 were used for comparison.
# The CFTR potentiating activity of Esc peptides in primary airway epithelial cells was studied by Ussing chamber experiments on bronchial epithelia from homozygous F508del patient. Epithelia were treated for 24 h with 0.1% DMSO vehicle alone, 1 μM Vx809 or with each Esc peptide. […]
# Pseudomonas aeruginosa = conditions: cited from earlier work
# Pseudomonas = conditions: single intra-tracheal instillation, cited from earlier work
# P. aeruginosa biofilm = conditions: compared with Esc(1-21); cited from earlier work
# F508del CFTR [2] = biological target: T1, F508del CFTR; assay: CFTR-dependent trans-epithelial conductance by TEER in F508del-CFBE pre-incubated with Vx-809; assay type: cell-based; design: expressed in transfected cells; host or cells: CFBE41o- human bronchial epithelial cells, lentiviral transduction (F508del-CFBE); conditions: for CFTR conductance: 10 μM peptide + 20 μM FSK without GEN, 10 min, pre-incubated 24 h with 1 μM Vx-809
# Protocol: In parallel, to evaluate CFTR activation, the same saline solution was used. After measurement of basal TEER, 20 μM FSK+50 μM GEN as positive control, or FSK+ peptides at the desired concentration were added on the epithelium apical side. Finally, 30 μM PPQ102, a specific inhibitor of CFTR, was added on the epithelium apical side. After each addition, we waited ten minutes at 37° C. before measurement. From the values of TEER measured before and after CFTR inhibition, we calculated the CFTR-dependent trans-epithelial conductance for each condition [Sondo E, Falchi F, Caci E, Ferrera L, Giacomini E, Pesce E, Tomati V, Mandrup Bertozzi S, Goldoni L, Armirotti A, Ravazzolo R, Cavalli A, Pedemonte N (2018) Pharmacological Inhibition of the Ubiquitin Ligase RNF5 Rescues F508del-CFTR in Cystic Fibrosis Airway Epithelia. Cell Chem Biol 25, 891-905 e898].
# Subsequently, was investigated the ability of Esc peptides to act as potentiators of mutated CFTR, by promoting its phosphorylation state or its channel opening time, mimicking the activity of forskolin (FSK) or genistein (GEN), respectively, which are both needed for full activation of CFTR [Sondo E, Falchi F, Caci E, Ferrera L, Giacomini E, Pesce E, Tomati V, Mandrup Bertozzi S, Goldoni L, Armirotti A, Ravazzolo R, Cavalli A, Pedemonte N (2018) Pharmacological Inhibition of the Ubiquitin Ligase RNF5 Rescues F508del-CFTR in Cystic Fibrosis Airway Epithelia. Cell Chem Biol 25, 891-905 e898]. Noteworthy, the adenylate cyclase activator FSK [Ma T, Thiagarajah J R, Yang H, Sonawane N D, Folli C, Galietta L J, Verkman A S (2002) Thiazolidinone CFTR inhibitor identified by high-throughput screening blocks cholera toxin-induced intestinal fluid secretion. J Clin Invest 110, 1651-1658] is reported to trigger an increase of intracellular cAMP favouring CFTR phosphorylation by cellular protein kinases e.g. PKA, while the isoflavone GEN accelerates channel opening, by promoting NBD dimerization, and slows channel closure by stabilizing the NBD1:NBD2 dimer conformation [Schmidt A, Hughes L K, Cai Z, Mendes F, Li H, Sheppard D N, Amaral M D (2008) Prolonged treatment of cells with genistein modulates the expression and function of the cystic fibrosis transmembrane conductance regulator. Br J Pharmacol 153, 1311-1323]. The CFTR-mediated conductance of bronchial epithelium was evaluated by TEER, after 10 min, 1 h and 2 h treatment of F508del-CFBE (pre-incubated with the corrector Vx-809 in order to trigger the mutated protein to the apical membrane) with Esc(1-21)-1c (10 μM), in the absence of FSK or GEN. […] This clearly denoted that the peptide was able to potentiate CFTR activity, likely by prolonging its channel opening time.
# The conductance was then measured on F508del-CFBE. […]
# wt-CFBE = conditions: compared with Esc(1-21); cited from earlier work
# F508del-CFBE = conditions: compared with Esc(1-21); cited from earlier work
# F508del CFTR [3] = biological target: T1, F508del CFTR; assay: Trans-epithelial electrical conductance in del508-FRT cells, position-17 analogs; assay type: cell-based; design: expressed in transfected cells; conditions: 10 min treatment with 10 μM peptide tested as potentiator (instead of genistein)
# Description: To understand whether the potentiator effect of Esc peptides was specifically dependent on their sequence and/or correlated to the presence of Ser17, eventually upon its phosphorylation by PKA, a series of peptide analogs bearing different L/D amino acids at position 17 were synthesized, the analogs are presented in the following table 1. The analogs were used to measure the trans-epithelial electrical conductance in […] Rat Thyroid cells, which is a cell line frequently used for functional studies and stably expressing F508del-CFTR (del508-FRT). Among them, compounds 3 and 5 carrying L and D-Alanine, respectively; compound 6 carrying the achiral Glycine17; compounds 7 and 8, with another potential target amino acid of protein kinases i.e. D and L-threonine respectively; and compounds 9 ad 10 where Ser17 was replaced by a residue with a bulky side chain, i.e. D and L tryptophan, respectively. Furthermore, an analog with L-phosphoserine at position 17 were included for comparison.
compound,measurement,setting,value
CC(C)(C)c1cc(C(C)(C)C)c(NC(=O)c2c[nH]c3ccccc3c2=O)cc1O [Vx-770],CFTR-mediated current as potentiator,F508del CFTR [1],significant current increase
"GIFSKLAGKKIKNLLISGLKG-NH2 [Esc(1-21), first 20 amino acids of Esculentin 1a with a glycinamide residue at the C-terminus]",antipseudomonal activity,Pseudomonas aeruginosa,potent antipseudomonal activity
"Gly-Ile-Phe-Ser-Lys-Leu-Ala-Gly-Lys-Lys-Ile-Lys-Asn-dLeu-Leu-Ile-dSer-Gly-Leu-Lys-Gly-NH2 (GIFSKLAGKKIKN[dL]LI[dS]GLKG-NH2) [Esc(1-21)-1c, diastereomer of Esc(1-21) with two D-amino acids]",reduction of lung bacterial burden,"Pseudomonas; 0.1 mg/kg corresponding to 20 μM, compared with Esc(1-21)",more potent in reducing lung bacterial burden
same,toxicity or inflammatory side events,Pseudomonas; 0.1 mg/kg,negligible toxicity or inflammatory side events
same,activity against P. aeruginosa biofilm,P. aeruginosa biofilm,more active against P. aeruginosa biofilm
same,CFTR conductance,F508del CFTR [2],significant increase of CFTR conductance
same,potentiator activity (CFTR conductance) over time,"F508del CFTR [2]; 10 μM peptide + FSK without GEN, 1 h or 2 h treatment, pre-incubated with Vx-809",remain constant up to 2 h
same,CFTR-mediated conductance (rescue of CFTR activity),"F508del CFTR [2]; 10 μM peptide in the absence of FSK, pre-incubated with Vx-809",no rescue of CFTR activity
same,re-epithelialization of bronchial epithelial cells,wt-CFBE,more efficient to induce re-epithelialization
same,re-epithelialization of bronchial epithelial cells,F508del-CFBE,more efficient to induce re-epithelialization
"Gly-Ile-Phe-Ser-Lys-Leu-Ala-Gly-Lys-Lys-Ile-Lys-Asn-dLeu-Leu-Ile-dphosphoSer-Gly-Leu-Lys-Gly-NH2 (GIFSKLAGKKIKN[dL]LI[d(pS)]GLKG-NH2; N-terminus assumed; SMILES CC[C@H](C)[C@H](NC(=O)CN)C(=O)N[C@@H](Cc1ccccc1)C(=O)N[C@@H](CO)C(=O)N[C@@H](CCCCN)C(=O)N[C@@H](CC(C)C)C(=O)N[C@@H](C)C(=O)NCC(=O)N[C@@H](CCCCN)C(=O)N[C@@H](CCCCN)C(=O)N[C@H](C(=O)N[C@@H](CCCCN)C(=O)N[C@@H](CC(N)=O)C(=O)N[C@H](CC(C)C)C(=O)N[C@@H](CC(C)C)C(=O)N[C@H](C(=O)N[C@H](COP(=O)(O)O)C(=O)NCC(=O)N[C@@H](CC(C)C)C(=O)N[C@@H](CCCCN)C(=O)NCC(N)=O)[C@@H](C)CC)[C@@H](C)CC) [compound 2, carrying D-phosphoSer at position 17]",transepithelial conductance (function of F508del-CFTR),F508del CFTR [3],significantly increase; also recorded: higher than that of genistein
temporin A [reference compound],CFTR conductance,F508del CFTR [2],no effect on CFTR currents
